Data taken from patent US20110319392A1, “Thiazole Sulfonamide And Oxazole Sulfonamide Kinase Inhibitors” (priority 2009, published 2011).

What was measured:
SK-MEL-28 tumor cells = experiment: Cell growth inhibition assay (CellTiter-Glo), SK-MEL-28; format: cell-based, Human; details: Homo sapiens, SK-MEL-28, 72 h; 3 days incubation
In short: (§1)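 Cells plated at 500 cells/well in their growth media, dosed next day with nine-step 1:3 compound dilutions (final DMSO 0.2%), then incubated 3 days at 37° C, 5% CO2. Total ATP read by CellTiter-Glo luminescence as a surrogate for cell number; IC50 interpolated from 4-parameter fit versus DMSO controls.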

A375P F11s tumor cells = experiment: Cell growth inhibition assay (CellTiter-Glo), A375P F11s; format: cell-based, Human; details: for IC50: Homo sapiens
Method: (§2) Human breast tumor cells (BT474) were cultured in RPMI (Mediatech […]), containing 10% FBS (JRH Biosciences 12176) and 1% penicillin-streptomycin (Invitrogen 15140). Human head and neck tumor cells (HN5) were cultured in high glucose DMEM (Mediatech 50-013-PB) containing 10% FBS and 1% penicillin-streptomycin. Human colon tumor cells (Colo205) were cultured in RPMI (Mediatech 50-020-PB) containing 10% FBS and 1% penicillin-streptomycin. Human melanoma cancer cells (SK-MEL-28) were cultured in EMEM with nonessential amino acids (Mediatech 50-011-PB) containing 10% FBS, 1% sodium pyruvate (JT Baker 3354-04), and 1% penicillin-streptomycin. Human melanoma cancer cells (A375P F11s) were cultured in RPMI (Mediatech 50-020-PB) containing 10% FBS, 1% sodium pyruvate, and 1% penicillin-streptomycin. Human colon cancer cells (HT-29) were cultured in high glucose DMEM (Mediatech 50-013-PB) containing 10% FBS and 1% penicillin-streptomycin. Human melanoma cancer cells (SK-MEL-3) were cultured in McCoy's 5A (50-025-PB) containing 15% FBS, and 1% penicillin-streptomycin. All cell lines were maintained at 37° C. in a humidified 5% CO2, 95% air incubator. Cells were harvested using trypsin/EDTA (Invitrogen 25200), counted using a haemocytometer, and plated. For 96-well assays (using white full-area NUNC plates cat. #136102), cells were plated in 105 μL at the following densities (cells/well): HNS, 500; Colo 205, 500; SK-MEL-28, 500; A375P F11s, 500; HT-29, 500; SK-MEL-3, 500; and BT474, 3000. For 384-well assays (white full-area NUNC plates, cat. #781080), cells were plated in 48 μL at the following densities (cells/well): HNS, 500; Colo205, 500; SK-MEL-28, 500; A375P F11s, 500; HT-29, 500; SK-MEL-3, 500; and BT474, 2000.
(§3) The next day, compounds were diluted as follow: For 96-well assays, 13.5 μL of compound in DMSO were diluted using nine (9) serial 1:3 dilutions of 4.5 μL in 9 of DMSO. Medium (270 μL/well of RPMI with 10% FBS and 1% penicillin-streptomycin) was added to the plates. Aliquots (7 μL) were added to cells in the final assay giving a final DMSO concentration of 0.2%. For 384-well assays, 15 μL of compound in DMSO were diluted using nine (9) serial 1:3 dilutions of 5 μL in 10 μL of DMSO, followed by a further dilution of 5 μL of compound with 95 μL of medium, of which 2 μL were added to cells in the final assay giving a final DMSO concentration of 0.2%. Cells were incubated at 37° C., 5% CO2 for 3 days.
(§4) Total ATP was measured (as a surrogate estimate of cell number) using CellTiter-Glo® reagent (Promega G7571). Briefly, plates were removed from the incubator and allowed to equilibrate to room temperature for 30 minutes. CellTiter-Glo® (25 μL or 55 μL for 384-well or 96-well assays, respectively) reagent was added to each well and plates were shaken on an orbital plate shaker for 2 minutes. Plates were incubated without shaking for a further 30 minutes and read on an LJL Analyst GT reader in luminometer mode with an integration time of 0.5 seconds per well. Percent inhibition of cell growth was calculated relative to DMSO vehicle-treated control wells. Concentration of compound required to give 50% inhibition of vehicle-treated control cell growth (IC50) was interpolated using a 4-parameter fit for determining IC50 using the following equation: Y=A +((B−A)/(1+((C/X)̂D))) where […].

HT-29 tumor cells = experiment: Cell growth inhibition assay (CellTiter-Glo), HT-29; format: cell-based, Human; details: for IC50: Homo sapiens
Method: as §2, §3, §4

ErbB2 = molecular target: T1, ErbB2 (Homo sapiens, UniProt P04626); experiment: ErbB-2 substrate phosphorylation assay (HTRF); format: biochemical
T1 construct: made in house; host or cells: baculovirus expression system
In short: (§5)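 Baculovirus-expressed EGFR (0.8 nM) or ErbB2 (10 nM) in enzyme mix, preincubated 1 h at 20 °C with compound (0.00027–47.6 μM final), then 90 min at 20 °C with substrate mix of 20 μM ATP, 0.8 uM biotinylated Peptide C, MnCl2, MOPS pH 7.5. Phosphotyrosine by HTRF; pIC50 reported.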

BT474 tumor cells = experiment: Cell growth inhibition assay (CellTiter-Glo), BT474; format: cell-based, Human; details: Homo sapiens, BT-474, 72 h, 3 days incubation
Method: as §2, §3, §4

EGFR = molecular target: T2, EGFR (Homo sapiens, UniProt P00533); experiment: EGFR substrate phosphorylation assay (HTRF); format: biochemical
T2 construct: made in house; host or cells: baculovirus expression system
In short: as §5

SK-MEL-3 tumor cells = experiment: Cell growth inhibition assay (CellTiter-Glo), SK-MEL-3; format: cell-based, Human; details: for IC50: Homo sapiens, SK-MEL3
Method: as §2, §3, §4

Colo205 tumor cells = experiment: Cell growth inhibition assay (CellTiter-Glo), Colo205; format: cell-based, Human; details: Homo sapiens, COLO 205, 72 h; 3 days incubation
In short: as §1

HN5 tumor cells = experiment: Cell growth inhibition assay (CellTiter-Glo), HN5; format: cell-based, Human; details: Homo sapiens, 72 h; 3 days incubation
Method: as §2, §3, §4

B-Raf = B-Raf (Homo sapiens, UniProt P15056); experiment: B-Raf Accelerated MEK ATPase assay (BRAMA), Method A or B; format: biochemical; details: Method B: final MEK 150 nM, single end point read
In short: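 Activated Raf plus non-phosphorylated MEK drives MEK-mediated ATP hydrolysis; ADP formation coupled via pyruvate kinase/lactate dehydrogenase to NADH oxidation. Method A read kinetically; Method B used 150 nM final MEK and a single end-point read.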

T2 sequence (P00533 25-1210): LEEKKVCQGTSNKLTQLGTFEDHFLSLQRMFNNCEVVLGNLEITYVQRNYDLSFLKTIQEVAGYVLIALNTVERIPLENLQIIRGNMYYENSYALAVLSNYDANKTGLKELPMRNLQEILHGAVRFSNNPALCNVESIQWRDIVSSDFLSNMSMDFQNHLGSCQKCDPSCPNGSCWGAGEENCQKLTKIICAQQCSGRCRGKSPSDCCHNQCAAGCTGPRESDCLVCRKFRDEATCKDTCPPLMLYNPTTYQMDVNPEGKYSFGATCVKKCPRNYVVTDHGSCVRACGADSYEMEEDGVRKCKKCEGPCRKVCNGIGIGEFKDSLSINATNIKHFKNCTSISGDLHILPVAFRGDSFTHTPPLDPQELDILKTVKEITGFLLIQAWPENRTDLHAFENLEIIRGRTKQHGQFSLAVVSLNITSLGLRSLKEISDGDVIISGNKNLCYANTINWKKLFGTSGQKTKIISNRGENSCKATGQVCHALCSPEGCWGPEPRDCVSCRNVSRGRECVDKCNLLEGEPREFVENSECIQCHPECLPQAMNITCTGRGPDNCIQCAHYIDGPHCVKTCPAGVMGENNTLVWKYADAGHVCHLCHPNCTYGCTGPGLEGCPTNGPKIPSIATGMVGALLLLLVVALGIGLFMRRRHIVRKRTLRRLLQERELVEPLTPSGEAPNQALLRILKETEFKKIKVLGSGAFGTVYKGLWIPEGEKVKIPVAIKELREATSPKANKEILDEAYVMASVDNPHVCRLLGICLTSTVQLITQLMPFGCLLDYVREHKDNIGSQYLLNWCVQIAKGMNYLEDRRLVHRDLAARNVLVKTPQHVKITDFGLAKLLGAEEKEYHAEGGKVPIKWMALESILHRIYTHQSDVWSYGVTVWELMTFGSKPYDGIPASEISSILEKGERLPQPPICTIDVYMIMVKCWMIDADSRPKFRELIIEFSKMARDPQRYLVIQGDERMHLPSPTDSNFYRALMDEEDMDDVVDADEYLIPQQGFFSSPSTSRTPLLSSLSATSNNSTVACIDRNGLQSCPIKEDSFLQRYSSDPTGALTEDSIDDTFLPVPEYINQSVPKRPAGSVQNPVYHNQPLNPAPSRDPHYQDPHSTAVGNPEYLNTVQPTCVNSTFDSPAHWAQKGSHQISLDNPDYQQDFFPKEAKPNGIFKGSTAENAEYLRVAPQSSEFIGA
B-Raf, sequence (P15056 whole entry): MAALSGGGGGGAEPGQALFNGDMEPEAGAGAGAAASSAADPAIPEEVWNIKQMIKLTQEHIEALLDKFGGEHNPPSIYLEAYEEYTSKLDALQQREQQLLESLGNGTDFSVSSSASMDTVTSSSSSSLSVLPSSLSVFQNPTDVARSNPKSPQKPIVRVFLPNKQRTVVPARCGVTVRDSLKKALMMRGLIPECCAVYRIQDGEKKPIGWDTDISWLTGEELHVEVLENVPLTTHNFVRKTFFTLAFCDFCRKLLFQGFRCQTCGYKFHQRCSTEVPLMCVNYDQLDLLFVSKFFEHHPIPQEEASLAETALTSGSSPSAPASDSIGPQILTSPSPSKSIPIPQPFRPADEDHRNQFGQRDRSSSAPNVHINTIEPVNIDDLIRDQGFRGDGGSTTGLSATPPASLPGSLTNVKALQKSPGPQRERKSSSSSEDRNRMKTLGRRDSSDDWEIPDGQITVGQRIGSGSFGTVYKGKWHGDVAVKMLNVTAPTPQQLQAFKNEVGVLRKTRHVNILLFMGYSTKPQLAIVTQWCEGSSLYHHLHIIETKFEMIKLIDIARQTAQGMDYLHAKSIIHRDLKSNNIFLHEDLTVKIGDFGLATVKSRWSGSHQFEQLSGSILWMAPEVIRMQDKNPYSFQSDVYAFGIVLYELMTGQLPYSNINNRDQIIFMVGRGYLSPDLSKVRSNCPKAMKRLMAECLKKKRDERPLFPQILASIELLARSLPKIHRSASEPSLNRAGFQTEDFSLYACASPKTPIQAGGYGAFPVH
T1 sequence (P04626 23-1255): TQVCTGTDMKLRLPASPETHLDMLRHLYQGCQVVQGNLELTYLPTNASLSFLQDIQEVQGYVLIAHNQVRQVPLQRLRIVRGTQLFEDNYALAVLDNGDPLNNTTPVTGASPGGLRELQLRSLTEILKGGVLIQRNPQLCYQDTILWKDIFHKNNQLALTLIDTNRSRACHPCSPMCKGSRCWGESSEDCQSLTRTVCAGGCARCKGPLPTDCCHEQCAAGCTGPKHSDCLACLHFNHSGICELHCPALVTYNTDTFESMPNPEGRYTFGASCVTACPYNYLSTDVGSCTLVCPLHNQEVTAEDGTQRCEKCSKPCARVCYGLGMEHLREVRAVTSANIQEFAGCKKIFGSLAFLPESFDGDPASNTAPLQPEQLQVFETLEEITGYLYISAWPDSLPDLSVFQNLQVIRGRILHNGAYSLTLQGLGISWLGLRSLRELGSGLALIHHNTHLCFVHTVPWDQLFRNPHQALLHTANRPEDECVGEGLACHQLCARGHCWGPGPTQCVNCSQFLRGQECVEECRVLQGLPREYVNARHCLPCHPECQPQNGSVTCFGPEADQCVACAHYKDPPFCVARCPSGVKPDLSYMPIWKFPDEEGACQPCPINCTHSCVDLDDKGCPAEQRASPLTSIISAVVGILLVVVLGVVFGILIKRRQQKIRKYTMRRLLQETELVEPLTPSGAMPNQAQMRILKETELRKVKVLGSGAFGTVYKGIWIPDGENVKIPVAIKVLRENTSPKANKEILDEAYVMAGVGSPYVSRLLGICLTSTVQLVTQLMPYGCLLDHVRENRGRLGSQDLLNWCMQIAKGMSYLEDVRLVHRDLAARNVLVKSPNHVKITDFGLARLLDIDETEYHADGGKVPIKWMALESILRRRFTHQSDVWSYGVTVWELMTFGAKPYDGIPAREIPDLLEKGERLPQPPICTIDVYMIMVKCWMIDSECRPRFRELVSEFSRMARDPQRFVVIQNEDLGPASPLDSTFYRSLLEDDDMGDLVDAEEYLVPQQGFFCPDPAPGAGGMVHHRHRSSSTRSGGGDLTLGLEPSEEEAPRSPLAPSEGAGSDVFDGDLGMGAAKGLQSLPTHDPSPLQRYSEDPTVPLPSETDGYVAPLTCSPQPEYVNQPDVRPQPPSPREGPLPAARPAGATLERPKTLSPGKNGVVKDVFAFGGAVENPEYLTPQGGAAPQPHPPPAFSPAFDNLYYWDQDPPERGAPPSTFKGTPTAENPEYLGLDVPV

| SMILES | IC50 (SK-MEL-28 tumor cells) [nM] | IC50 (A375P F11s tumor cells) [nM] | IC50 (HT-29 tumor cells) [nM] | IC50 (ErbB2) [nM] | IC50 (BT474 tumor cells) [nM] | IC50 (EGFR) [nM] | IC50 (SK-MEL-3 tumor cells) [nM] | IC50 (Colo205 tumor cells) [nM] | IC50 (HN5 tumor cells) [nM] | Activity in A375P F11s Tumor Cells (A375P F11s tumor cells) | Activity in HT-29 Tumor Cells (HT-29 tumor cells) | Activity in SK-MEL-3 Tumor Cells (SK-MEL-3 tumor cells) | IC50 (B-Raf) [nM] |
| --- | --- | --- | --- | --- | --- | --- | --- | --- | --- | --- | --- | --- | --- |
| CCc1nc(-c2cccc(NS(=O)(=O)c3ccccc3)c2)c(-c2ccnc(Nc3cc(OC)c(OC)c(OC)c3)n2)s1 [Example 2, N-{3-[2-Ethyl-5-(2-{[3,4,5-tris(methyloxy)phenyl]amino}-4-pyrimidinyl)-1,3-thiazol-4-yl]phenyl}benzenesulfonamide] | < 100 | < 100 | 100 to 1000 | > 1000 | > 1000 | > 1000 | < 100 | < 100 | 100 to 1000 | – | – | – | – |
| COCCN1CCN(c2ccc(Nc3nccc(-c4sc(C(C)C)nc4-c4cccc(NS(=O)(=O)c5ccccc5)c4)n3)cn2)CC1.Cl [Example 7] | – | – | – | – | – | – | – | – | – | +++ (activity of less than 100 nM in A375P F11s tumor cells) | +++ (activity of less than 100 nM in HT-29 tumor cells) | +++ (activity of less than 100 nM in SK-MEL-3 tumor cells) | – |
| CCc1nc(-c2ccc(F)c(NS(=O)(=O)c3ccccc3)c2)c(-c2ccnc(Nc3ccc(N4CCN(C(C)=O)CC4)nc3)n2)s1 [Example 66] | 100 to 1000 | – | > 1000 | > 1000 | > 1000 | > 1000 | – | 100 to 1000 | > 1000 | – | – | – | < 100 |
| CC(C)(F)c1nc(-c2cccc(NS(=O)(=O)c3c(F)cccc3F)c2)c(-c2ccnc(Nc3ccc(N4CCN(CCF)CC4)c(F)c3)n2)s1 [Example 94] | < 100 | – | < 100 | > 1000 | > 1000 | > 1000 | – | < 100 | > 1000 | – | – | – | 100 to 1000 |
| COc1cc(C2CCN(CCS(C)(=O)=O)CC2)c(C)cc1Nc1nccc(-c2sc(C(C)C)nc2-c2cccc(NS(=O)(=O)c3c(F)cccc3F)c2)n1 [Example 115] | < 100 | 100 to 1000 | 100 to 1000 | > 1000 | – | > 1000 | 100 to 1000 | 100 to 1000 | – | – | – | – | < 100 |
| COc1cc(N2CCC3(CC2)CCN(S(C)(=O)=O)CC3)c(C)cc1Nc1nccc(-c2sc(C(C)C)nc2-c2cccc(NS(=O)(=O)c3c(F)cccc3F)c2F)n1 [Example 160] | 100 to 1000 | – | – | 100 to 1000 | – | 100 to 1000 | – | < 100 | – | – | – | – | < 100 |
| COc1cc(N2CCN(CCS(C)(=O)=O)CC2)c(C)cc1Nc1nccc(-c2sc(CC(C)C)nc2-c2cccc(NS(=O)(=O)c3c(F)cccc3F)c2)n1 [Example 161] | 100 to 1000 | – | – | < 100 | – | < 100 | – | < 100 | – | – | – | – | 100 to 1000 |
| COc1cc(N2CCN(CCS(C)(=O)=O)CC2)c(C)cc1Nc1nccc(-c2scnc2-c2cccc(NS(=O)(=O)c3c(F)cccc3F)c2)n1 [Example 163] | 100 to 1000 | – | – | < 100 | – | < 100 | – | 100 to 1000 | – | – | – | – | 100 to 1000 |
| COc1ccc(S(C)(=O)=O)cc1Nc1nccc(-c2sc(N3CCOCC3)nc2-c2cccc(NS(=O)(=O)c3c(F)cccc3F)c2Cl)n1 [Example 164] | < 100 | – | – | > 1000 | – | > 1000 | – | < 100 | – | – | – | – | < 100 |
| COc1ccc(S(C)(=O)=O)cc1Nc1nccc(-c2sc(C(C)C)nc2-c2cccc(NS(=O)(=O)c3c(F)cccc3F)c2F)n1 [Example 165] | < 100 | – | – | 100 to 1000 | – | 100 to 1000 | – | < 100 | – | – | – | – | < 100 |
| COc1c(NS(=O)(=O)c2c(F)cccc2F)cccc1-c1nc(N2CCOCC2)sc1-c1ccnc(Nc2ccc3c(c2)OCCO3)n1 [Example 170] | 100 to 1000 | 100 to 1000 | 100 to 1000 | > 1000 | – | > 1000 | 100 to 1000 | < 100 | – | – | – | – | < 100 |
| COc1cc(OCCN2CCOCC2)c(C)cc1Nc1nccc(-c2sc(C(C)C)nc2-c2cccc(NS(=O)(=O)c3c(F)cccc3F)c2F)n1 [Example 171] | < 100 | – | – | 100 to 1000 | – | 100 to 1000 | – | < 100 | – | – | – | – | < 100 |
| COc1ccc(S(C)(=O)=O)cc1Nc1nccc(-c2sc(C(C)C)nc2-c2cccc(NS(=O)(=O)c3c(F)cccc3F)n2)n1 [Example 172] | > 1000 | – | – | < 100 | – | 100 to 1000 | – | > 1000 | – | – | – | – | < 100 |
| COc1cc(N2CCN(CCS(C)(=O)=O)CC2)c(C)cc1Nc1nccc(-c2sc(C(C)C)nc2-c2cccc(NS(=O)(=O)c3cnn(C)c3)c2)n1 [Example 173] | 100 to 1000 | – | – | 100 to 1000 | – | > 1000 | – | 100 to 1000 | – | – | – | – | 100 to 1000 |
| CC(C)c1nc(-c2cccc(NS(=O)(=O)c3cnn(C)c3)c2)c(-c2ccnc(Nc3ccc(N4CCOCC4)nc3)n2)s1 [Example 174] | < 100 | – | – | > 1000 | – | > 1000 | – | < 100 | – | – | – | – | < 100 |
| COc1cc(N2CCN(CCS(C)(=O)=O)CC2)c(C)cc1Nc1nccc(-c2sc(C3CC3)nc2-c2cccc(NS(=O)(=O)c3c(F)cccc3F)c2)n1 [Example 175] | 100 to 1000 | – | – | < 100 | – | 100 to 1000 | – | < 100 | – | – | – | – | 100 to 1000 |
| CC(C)c1nc(-c2cccc(NS(=O)(=O)c3c(F)cccc3F)c2)c(-c2ccnc(Nc3ccc(N4CCN(CCS(C)(=O)=O)CC4)cc3C(F)(F)F)n2)s1 [Example 176] | < 100 | – | – | > 1000 | – | > 1000 | – | < 100 | – | – | – | – | < 100 |
| COc1cc(N2CCN(CCS(C)(=O)=O)CC2)c(C)cc1Nc1nccc(-c2sc(C3CCOCC3)nc2-c2cccc(NS(=O)(=O)c3c(F)cccc3F)c2F)n1 [Example 177] | < 100 | – | – | < 100 | – | < 100 | – | < 100 | – | – | – | – | < 100 |
